# Experimental data reported in patent publication US12516292B2, “Methods of producing modified natural killer cells and methods of use” (The United States of America, as represented by the …, priority 2016, dated 2026).
# System: human NK cells from PBMC
# Assay: Fold expansion and overall yield of transduced NK cells in culture
# Type: cell-based
# Settings: BX795 (1.5 μM) during transduction combined with pre-stimulation with SMI-LCL feeder cells (FIG. 28A, 28B)
compound,measurement,value
O=C(NCCCNc1nc(Nc2cccc(NC(=O)N3CCCC3)c2)ncc1I)c1cccs1 [BX795],subsequent proliferation of lentiviral transduced ex-vivo expanded human NK cells,increased subsequent proliferation
